Values joined by “and” are separate entries in the source; they are usually repeats but may differ in a detail not shown here. Identical values can stand only once.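 Cultured in 96-well plates, cells were exposed to test compound for 48 hours across five concentrations. GI50 is the concentration that inhibits growth by half.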 Active and inactive are the calls of the source. Cut-off read from the data, not from the text of the source: active = GI50 up to about 1.1 µM and inactive = higher.
Tests used:
Test in all cases: NCI-60 cell line screen, 48 h
UACC-257 = test system: UACC-257
SK-OV-3 = test system: SK-OV-3
HCC 2998 = test system: HCC 2998
MCF7 = test system: MCF7
MDA-MB-231 = test system: MDA-MB-231
NCI-H460 = test system: NCI-H460
MDA-MB-435 = test system: MDA-MB-435
Malme-3M = test system: Malme-3M
RXF 393 = test system: RXF 393
NCI-H522 = test system: NCI-H522
UO-31 = test system: UO-31
CAKI-1 = test system: CAKI-1
LOX IMVI = test system: LOX IMVI
OVCAR-3 = test system: OVCAR-3
NCI-H226 = test system: NCI-H226
HT-29 = test system: HT-29
Hs-578T = test system: Hs-578T
SN12C = test system: SN12C
SF-268 = test system: SF-268
HOP-92 = test system: HOP-92

SMILES	GI50 (UACC-257)	GI50 (SK-OV-3)	GI50 (HCC 2998)	GI50 (MCF7)	GI50 (MDA-MB-231)	GI50 (NCI-H460)	GI50 (MDA-MB-435)	GI50 (Malme-3M)	GI50 (RXF 393)	GI50 (NCI-H522)	GI50 (UO-31)	GI50 (CAKI-1)	GI50 (LOX IMVI)	GI50 (OVCAR-3)	GI50 (NCI-H226)	GI50 (HT-29)	GI50 (Hs-578T)	GI50 (SN12C)	GI50 (SF-268)	GI50 (HOP-92)
Cc1cc(-c2cc(C)c(O)c(C(C)(C)C)c2)cc(C(C)(C)C)c1O	11.8 µM (inactive)	16.7 µM (inactive) and 14.2 µM (inactive)	4.54 µM (inactive) and 4.59 µM (inactive)	5.02 µM (inactive) and 6.62 µM (inactive)	9.55 µM (inactive) and 12.9 µM (inactive)	6.68 µM (inactive) and 5.46 µM (inactive)	11.5 µM (inactive) and 14.8 µM (inactive)	14.6 µM (inactive) and 21.4 µM (inactive)	13.4 µM (inactive) and 11 µM (inactive)	10.5 µM (inactive) and 12.3 µM (inactive)	11 µM (inactive) and 18.1 µM (inactive)	14.6 µM (inactive) and 9.66 µM (inactive)	10.1 µM (inactive) and 11.5 µM (inactive)	12.2 µM (inactive) and 14.1 µM (inactive)	10.7 µM (inactive) and 19.8 µM (inactive)	3.24 µM (inactive) and 3.82 µM (inactive)	12.8 µM (inactive) and 15.3 µM (inactive)	13.4 µM (inactive) and 12.3 µM (inactive)	13.9 µM (inactive) and 11.7 µM (inactive)	–
COc1c(C(CC(C)C)OC(C)=O)ccc2c1C(=O)OCc1cc(C)cc(O)c1O2 (stereo unspecified)	8.47 µM (inactive)	15.8 µM (inactive)	12.8 µM (inactive)	11.8 µM (inactive)	–	12.6 µM (inactive)	13.7 µM (inactive)	16.1 µM (inactive)	18.2 µM (inactive)	13.2 µM (inactive)	6.95 µM (inactive)	16.1 µM (inactive)	12.6 µM (inactive)	10.5 µM (inactive)	14.9 µM (inactive)	17.8 µM (inactive)	22.1 µM (inactive)	14.2 µM (inactive)	14.3 µM (inactive)	11.9 µM (inactive)
Cc1ccc(-n2nnc(C#N)c2O)cc1	> 100 µM (inactive)	> 100 µM (inactive)	> 100 µM (inactive)	> 100 µM (inactive)	> 100 µM (inactive)	> 100 µM (inactive)	> 100 µM (inactive)	> 100 µM (inactive)	> 100 µM (inactive)	> 100 µM (inactive)	> 100 µM (inactive)	93.3 µM (inactive)	–	> 100 µM (inactive)	> 100 µM (inactive)	> 100 µM (inactive)	> 100 µM (inactive)	> 100 µM (inactive)	> 100 µM (inactive)	–
C[C@H](CO)C1=CC(C#C[Si](C)(C)C)N(C(=O)Oc2ccccc2)c2ccccc21 (stereo partly specified)	13.6 µM (inactive)	11.6 µM (inactive)	10.6 µM (inactive)	–	10.3 µM (inactive)	9.25 µM (inactive)	2.26 µM (inactive)	–	10.2 µM (inactive)	3.94 µM (inactive)	9.27 µM (inactive)	14.1 µM (inactive)	15.7 µM (inactive)	3.93 µM (inactive)	15.7 µM (inactive)	4.92 µM (inactive)	10.2 µM (inactive)	12 µM (inactive)	13.3 µM (inactive)	12.9 µM (inactive)
CC(C)(C)/C(O)=C\c1nc2cc(C(F)(F)F)ccc2[nH]c1=O	> 100 µM (inactive)	> 100 µM (inactive)	–	–	> 100 µM (inactive)	–	> 100 µM (inactive)	> 100 µM (inactive)	> 100 µM (inactive)	> 100 µM (inactive)	> 100 µM (inactive)	> 100 µM (inactive)	> 100 µM (inactive)	> 100 µM (inactive)	> 100 µM (inactive)	47.5 µM (inactive)	> 100 µM (inactive)	> 100 µM (inactive)	> 100 µM (inactive)	> 100 µM (inactive)
CCc1nn(S(=O)(=O)c2ccc(C)cc2)c2c1CS(=O)(=O)CC2	> 100 µM (inactive)	69.3 µM (inactive)	–	> 100 µM (inactive)	> 100 µM (inactive)	> 100 µM (inactive)	> 100 µM (inactive)	–	> 100 µM (inactive)	–	> 100 µM (inactive)	> 100 µM (inactive)	–	> 100 µM (inactive)	–	> 100 µM (inactive)	28 µM (inactive)	> 100 µM (inactive)	37.1 µM (inactive)	–
S=C1SCN(Cc2ccco2)CN1c1ccc(Br)cc1	15.6 µM (inactive)	25.1 µM (inactive)	14.5 µM (inactive)	14.6 µM (inactive)	–	7.33 µM (inactive)	14.6 µM (inactive)	17.4 µM (inactive)	30.6 µM (inactive)	10.3 µM (inactive)	22.9 µM (inactive)	14.8 µM (inactive)	1.72 µM (inactive)	7.76 µM (inactive)	25.2 µM (inactive)	13.8 µM (inactive)	24.8 µM (inactive)	23.4 µM (inactive)	13.2 µM (inactive)	20 µM (inactive)
CC(C)=c1sc(=C(C)C)c2c1=NC(C)(C)N=2	30.9 µM (inactive)	> 100 µM (inactive)	27.5 µM (inactive)	48.3 µM (inactive)	> 100 µM (inactive)	43.7 µM (inactive)	> 100 µM (inactive)	> 100 µM (inactive)	> 100 µM (inactive)	32.9 µM (inactive)	–	77.1 µM (inactive)	27 µM (inactive)	72.6 µM (inactive)	–	74.6 µM (inactive)	53.6 µM (inactive)	58.5 µM (inactive)	64.9 µM (inactive)	–
COc1cc(NS(C)(=O)=O)ccc1N1Cc2c[nH]c3ccc4nccc1c4c23	37.2 µM (inactive)	–	–	36.6 µM (inactive)	24.9 µM (inactive)	18.5 µM (inactive)	34.4 µM (inactive)	–	–	15.5 µM (inactive)	> 100 µM (inactive)	> 100 µM (inactive)	18.2 µM (inactive)	33.7 µM (inactive)	29 µM (inactive)	30.8 µM (inactive)	31.1 µM (inactive)	20.2 µM (inactive)	19.1 µM (inactive)	26.1 µM (inactive)
COC(=O)C1=C(O)C(C(=O)OC)[C@]2(O)[C@H](C(=O)OC)[C@H]1C[C@@H](c1ccccc1OC)[C@H]2C(=O)OC (stereo partly specified)	9.64 µM (inactive)	4.33 µM (inactive)	10.5 µM (inactive)	–	9.55 µM (inactive)	4.51 µM (inactive)	2.71 µM (inactive)	2.83 µM (inactive)	5.06 µM (inactive)	1.84 µM (inactive)	10 µM (inactive)	3.99 µM (inactive)	2.79 µM (inactive)	6.04 µM (inactive)	5.4 µM (inactive)	4.82 µM (inactive)	2.49 µM (inactive)	4.68 µM (inactive)	4.53 µM (inactive)	2.34 µM (inactive)
CC(C)Oc1ccc(CNC2=NCCO2)c2ccccc12	5.25 µM (inactive)	16.3 µM (inactive)	10.9 µM (inactive)	14.1 µM (inactive)	14.5 µM (inactive)	12.4 µM (inactive)	10.9 µM (inactive)	14.1 µM (inactive)	13.8 µM (inactive)	–	5.24 µM (inactive)	–	–	–	15.7 µM (inactive)	4.01 µM (inactive)	10.3 µM (inactive)	17.3 µM (inactive)	22.3 µM (inactive)	–
CCOC(=O)/C=C(/C=C\COC1CCCCO1)c1ccccc1 (stereo unspecified)	56.1 µM (inactive)	33.6 µM (inactive)	> 100 µM (inactive)	29 µM (inactive)	42.4 µM (inactive)	48.1 µM (inactive)	25.2 µM (inactive)	84.7 µM (inactive)	16.1 µM (inactive)	21.7 µM (inactive)	36 µM (inactive)	33.7 µM (inactive)	15.4 µM (inactive)	29.2 µM (inactive)	70.6 µM (inactive)	15.8 µM (inactive)	22.3 µM (inactive)	22.9 µM (inactive)	32.1 µM (inactive)	–
CC1=C(C)CC(C#N)(C#N)C(C#N)(C#N)C1	> 10 µM (inactive)	> 10 µM (inactive)	> 10 µM (inactive)	> 5.65 µM (inactive)	> 10 µM (inactive)	> 10 µM (inactive)	–	> 6.4 µM (inactive)	> 4.39 µM (inactive)	1 µM (active)	> 10 µM (inactive)	> 10 µM (inactive)	> 10 µM (inactive)	> 5.52 µM (inactive)	> 10 µM (inactive)	> 5.78 µM (inactive)	> 10 µM (inactive)	> 9.12 µM (inactive)	> 10 µM (inactive)	> 3.28 µM (inactive)
CCOC(=O)C1=C(C)N(c2ccc(Cl)cc2)C2(O)C=CC(O)=C3C(=O)c4ccccc4C(=O)C312 (stereo unspecified)	18.2 µM (inactive)	10.6 µM (inactive)	–	2.72 µM (inactive)	10.9 µM (inactive)	5.38 µM (inactive)	2.59 µM (inactive)	0.483 µM (active)	–	2.21 µM (inactive)	3.92 µM (inactive)	1.96 µM (inactive)	3.72 µM (inactive)	1.91 µM (inactive)	–	–	4.26 µM (inactive)	4.16 µM (inactive)	1.67 µM (inactive)	1.73 µM (inactive)
O1C2C1C1OC1C1OC1C1OC21 (stereo unspecified)	> 100 µM (inactive)	> 100 µM (inactive)	–	> 100 µM (inactive)	> 100 µM (inactive)	–	> 100 µM (inactive)	> 100 µM (inactive)	–	> 100 µM (inactive)	> 100 µM (inactive)	> 100 µM (inactive)	> 100 µM (inactive)	–	> 100 µM (inactive)	> 100 µM (inactive)	> 100 µM (inactive)	> 100 µM (inactive)	> 100 µM (inactive)	> 100 µM (inactive)

From ChEMBL document CHEMBL1201862, “PubChem BioAssay data set” (2004)
